Results on three compounds are retold here after patent US20260365670A1, “EGFR INHIBITORS AND USES THEREOF” (DIZAL (JIANGSU) PHARMACEUTICAL CO., LTD., priority 2022, published 2026).

One assay deals with T1, EGFR (d746-750 C797S) (Homo sapiens, UniProt P00533, C797S/DEL746-750).
T1 construct: purchased signalchem
Description: Inhibition of EGFR (d746-750 C797S) biochemical enzymatic activity (HTRF). To be noted: 1 mM ATP. An outline of the steps:
(§1)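 Kinase activity is measured by HTRF detection of biotinylated TK substrate (1 μM) phosphorylation at 1 mM ATP. Incubation lasts 1 h at room temperature before an EDTA stop, and IC50 is fitted with a four-parameter logistic model.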

The test system of a further assay is PC-9. Kind of assay: Cell proliferation assay, PC-9 cells (CellTiter-Glo, 72 hours). The class given is cell-based. To be noted: Homo sapiens, PC-9, 72 h, PC9 cells, read-out: GI50 PC9. The method in brief: (§2)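 Luminescent viable-cell counts were taken on a day 0 plate at dosing and again at endpoint. Proliferation was calculated as (sample − G0)/(DMSO − G0). Seeding was 5000 Ba/F3 or 500 PC-9 cells per well in RPMI1640, followed by overnight attachment and serial compound dilutions. The GI50 was fitted.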

A further assay addresses T2, EGFR (C797S L858R) (Homo sapiens, UniProt P00533, C797S/L858R).
T2 construct: purchased signalchem
Description: Inhibition of EGFR (C797S L858R) biochemical enzymatic activity (HTRF). To be noted: 1 mM ATP. The method in brief: as §1
A general note: TR-FRET usually uses a lanthanide donor and a delayed reading to cut background.

The target in a further assay is T3, EGFR L858R/T790M (Homo sapiens, UniProt P00533, L858R/T790M).
T3 construct: purchased Carna Bio
T3 sequence (P00533 25-1210 T790M/L858R): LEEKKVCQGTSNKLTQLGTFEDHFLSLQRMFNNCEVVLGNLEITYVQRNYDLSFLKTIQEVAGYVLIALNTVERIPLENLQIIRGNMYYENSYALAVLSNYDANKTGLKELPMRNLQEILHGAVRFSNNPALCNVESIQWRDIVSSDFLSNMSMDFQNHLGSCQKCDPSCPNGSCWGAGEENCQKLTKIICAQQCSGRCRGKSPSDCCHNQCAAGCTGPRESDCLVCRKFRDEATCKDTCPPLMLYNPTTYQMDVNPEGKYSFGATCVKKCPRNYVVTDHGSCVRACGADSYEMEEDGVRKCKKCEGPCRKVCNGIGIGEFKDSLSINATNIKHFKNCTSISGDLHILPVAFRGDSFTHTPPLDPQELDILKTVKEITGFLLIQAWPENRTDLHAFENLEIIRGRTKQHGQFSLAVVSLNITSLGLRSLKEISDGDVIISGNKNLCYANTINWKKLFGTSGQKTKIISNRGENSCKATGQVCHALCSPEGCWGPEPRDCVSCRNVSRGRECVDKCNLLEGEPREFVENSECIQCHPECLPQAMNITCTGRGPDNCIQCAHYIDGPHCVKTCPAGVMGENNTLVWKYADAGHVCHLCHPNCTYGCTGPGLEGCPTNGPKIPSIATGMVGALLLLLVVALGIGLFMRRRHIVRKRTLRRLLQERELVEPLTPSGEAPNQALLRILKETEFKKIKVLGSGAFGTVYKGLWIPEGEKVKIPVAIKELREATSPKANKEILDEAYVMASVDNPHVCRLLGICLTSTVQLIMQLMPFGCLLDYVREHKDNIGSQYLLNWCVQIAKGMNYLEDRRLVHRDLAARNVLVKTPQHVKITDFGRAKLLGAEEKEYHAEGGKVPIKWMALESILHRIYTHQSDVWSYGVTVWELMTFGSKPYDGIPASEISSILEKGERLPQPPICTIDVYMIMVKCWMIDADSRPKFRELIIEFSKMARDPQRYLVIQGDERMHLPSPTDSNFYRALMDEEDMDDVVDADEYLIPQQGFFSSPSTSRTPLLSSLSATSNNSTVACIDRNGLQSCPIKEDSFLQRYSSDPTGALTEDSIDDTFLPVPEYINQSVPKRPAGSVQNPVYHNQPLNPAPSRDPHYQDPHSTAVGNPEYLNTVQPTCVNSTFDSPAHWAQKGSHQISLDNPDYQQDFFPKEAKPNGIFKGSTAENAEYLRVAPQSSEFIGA
Kind of assay: Inhibition of EGFR L858R/T790M biochemical enzymatic activity (HTRF). To be noted: 1 mM ATP. The method in brief:
as §1

For another assay, the system named is A-431. Kind of assay: Cell proliferation assay, A-431 cells (GI50, Table 6). The class given is cell-based. To be noted: Homo sapiens, A-431, A-431 cells.
For a further assay, the target named is T4, EGFR[T790M/C797S/L858R] (Homo sapiens, UniProt P00533, C797S/L858R/T790M).
T4 construct: purchased Carna Bio
T4 sequence (P00533 25-1210 T790M/C797S/L858R): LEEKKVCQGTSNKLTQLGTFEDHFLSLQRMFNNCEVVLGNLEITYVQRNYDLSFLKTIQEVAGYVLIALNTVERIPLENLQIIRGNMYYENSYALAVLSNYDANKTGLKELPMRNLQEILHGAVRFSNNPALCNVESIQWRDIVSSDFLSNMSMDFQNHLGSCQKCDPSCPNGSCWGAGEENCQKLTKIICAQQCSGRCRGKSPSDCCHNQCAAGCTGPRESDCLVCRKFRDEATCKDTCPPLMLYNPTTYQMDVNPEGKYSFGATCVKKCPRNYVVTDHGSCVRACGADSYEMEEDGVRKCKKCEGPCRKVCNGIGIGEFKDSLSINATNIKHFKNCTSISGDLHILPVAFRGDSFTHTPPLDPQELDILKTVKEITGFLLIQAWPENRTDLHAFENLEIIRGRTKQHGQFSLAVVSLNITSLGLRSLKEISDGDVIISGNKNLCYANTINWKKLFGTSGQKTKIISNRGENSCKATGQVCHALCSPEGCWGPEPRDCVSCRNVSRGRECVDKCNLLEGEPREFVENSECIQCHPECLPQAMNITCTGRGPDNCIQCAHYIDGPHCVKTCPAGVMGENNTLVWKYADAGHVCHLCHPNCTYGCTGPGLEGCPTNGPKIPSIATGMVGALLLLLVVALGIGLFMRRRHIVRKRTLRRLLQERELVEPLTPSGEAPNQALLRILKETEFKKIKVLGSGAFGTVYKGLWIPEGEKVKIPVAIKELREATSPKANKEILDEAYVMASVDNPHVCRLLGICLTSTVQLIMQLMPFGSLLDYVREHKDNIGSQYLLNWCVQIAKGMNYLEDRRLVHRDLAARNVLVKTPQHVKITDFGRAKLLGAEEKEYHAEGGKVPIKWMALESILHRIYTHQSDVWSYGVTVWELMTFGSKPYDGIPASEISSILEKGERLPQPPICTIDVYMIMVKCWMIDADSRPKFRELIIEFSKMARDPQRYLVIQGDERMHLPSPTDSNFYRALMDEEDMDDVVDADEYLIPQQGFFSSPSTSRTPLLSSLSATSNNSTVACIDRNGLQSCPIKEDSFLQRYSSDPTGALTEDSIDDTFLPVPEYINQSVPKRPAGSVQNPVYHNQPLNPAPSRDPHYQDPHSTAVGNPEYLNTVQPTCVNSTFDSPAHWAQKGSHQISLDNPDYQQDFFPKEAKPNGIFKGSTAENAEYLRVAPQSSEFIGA
Description: Inhibition of EGFR[T790M/C797S/L858R] biochemical enzymatic activity (HTRF). To be noted: 1 mM ATP. The method in brief: as §1

For the next assay, the target named is T5, EGFR Exon19Del (Homo sapiens, UniProt P00533, DEL746-750).
T5 construct: purchased Carna Bio
T5 sequence (P00533 with tags, fused parts or gaps DEL746-750 limits assumed): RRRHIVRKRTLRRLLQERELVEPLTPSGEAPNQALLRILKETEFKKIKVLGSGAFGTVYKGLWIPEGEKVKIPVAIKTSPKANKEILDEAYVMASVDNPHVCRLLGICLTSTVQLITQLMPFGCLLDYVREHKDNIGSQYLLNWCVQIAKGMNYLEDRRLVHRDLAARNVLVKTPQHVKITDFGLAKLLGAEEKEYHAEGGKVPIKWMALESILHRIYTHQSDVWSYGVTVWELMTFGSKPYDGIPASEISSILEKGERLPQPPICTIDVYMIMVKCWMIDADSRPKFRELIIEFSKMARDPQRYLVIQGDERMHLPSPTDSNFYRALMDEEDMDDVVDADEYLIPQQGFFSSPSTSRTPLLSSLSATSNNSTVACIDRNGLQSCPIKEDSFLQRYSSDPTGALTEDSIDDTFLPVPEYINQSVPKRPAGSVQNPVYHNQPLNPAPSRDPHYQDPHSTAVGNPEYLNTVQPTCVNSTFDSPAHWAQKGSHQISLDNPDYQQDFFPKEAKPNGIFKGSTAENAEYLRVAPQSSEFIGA
Description: Inhibition of EGFR Exon19Del biochemical enzymatic activity (HTRF). Particulars: read-out: IC50 @Del19. An outline of the steps: as §1

Another assay deals with T6, EGFR Exon19Del/T790M (Homo sapiens, UniProt P00533, DEL746-750/T790M).
T6 construct: purchased Carna Bio
Description: Inhibition of EGFR Exon19Del/T790M biochemical enzymatic activity (HTRF). To be noted: 1 mM ATP. An outline of the steps: as §1

Assay [1] relates to Ba/F3 cells expressing EGFR mutations. Kind of assay: Cell proliferation assay, Ba/F3 cells expressing EGFR mutations (CellTiter-Glo, 72 hours). To be noted: Mus musculus, BaF3, 72 h. The class given is cell-based. The method in brief: as §2
In general terms: In ATP-based viability assays light output follows the ATP content of the culture.

The target of the next assay is T7, EGFR wild type (Homo sapiens, UniProt P00533).
T7 construct: purchased Carna Bio
Description: Inhibition of EGFR wild type biochemical enzymatic activity (HTRF). Particulars: 1 mM ATP. An outline of the steps:
as §1

Assay [2] addresses T8, EGFR[T790M/C797S/d746-750] (Homo sapiens, UniProt P00533, C797S/DEL746-750/T790M).
T8 construct: purchased Carna Bio
Kind of assay: Inhibition of EGFR[T790M/C797S/d746-750] biochemical enzymatic activity (HTRF). An outline of the steps: as §1

Another assay has as its target T9, EGFR L858R (Homo sapiens, UniProt P00533, L858R).
T9 construct: purchased Carna Bio
Kind of assay: Inhibition of EGFR L858R biochemical enzymatic activity (HTRF). Particulars: 1 mM ATP. An outline of the steps:
as §1

Where [3] appears, read: EGFR Del19-C797S, 1 h, room temperature, read-out: IC50 (nM) @Del19-C797S.
The mark [4] stands for this setting: EGFR L858-C797S, 1 h, room temperature, read-out: IC50 (nM) @L858-C797S.
The mark [5] stands for this setting: EGFR L858R-T790M, 1 h, room temperature, read-out: IC50 (nM) @L858R-T790M.
Where [6] appears, read: EGFR T790M-C797S-L858R, 1 h, room temperature, read-out: IC50 (nM) @T790M- C797S - L858R.
Where [7] appears, read: EGFR Del19, 1 mM ATP, 1 h, room temperature.
[8] abbreviates: EGFR Del19-T790M, 1 h, room temperature, read-out: IC50 (nM) @Del19-T790M.
[9] abbreviates: BaF3 cells, EGFR DEL19 - C797S, read-out: GI50 DEL19 - C797S/BaF3.
The mark [10] stands for this setting: BaF3 cells, EGFR DEL19 - T790-C797S, read-out: GI50 DEL19 - T790-C797S/BaF3.
[11] abbreviates: BaF3 cells, EGFR L858R - C797S, read-out: GI50 L858R - C797S/BaF3.
Setting [12] is: BaF3 cells, EGFR L858R - T790-C797S, read-out: GI50 L858R - T790-C797S/BaF3.
[13] abbreviates: BaF3 cells, EGFR L858R - T790M, read-out: GI50 L858R - T790M/BaF3.
The mark [14] stands for this setting: BaF3 cells, EGFR L858R, read-out: GI50 L858R/BaF3.
[15] abbreviates: EGFR WT, 1 h, room temperature, read-out: IC50 (nM) @WT.
[16] abbreviates: EGFR T790M-C797S-Del19, 1 mM ATP, 1 h, room temperature, read-out: IC50 (nM) @T790M - C797S - Del19.
Where [17] appears, read: 1 h, room temperature, read-out: IC50 (nM) @L858R.
[18] abbreviates: EGFR DEL19 - T790M, read-out: GI50 DEL19 - T790M.

Where two headings read alike, the source gives them in different places. Bounds are passed on as bounds.

T2 sequence (P00533 25-1210 C797S/L858R): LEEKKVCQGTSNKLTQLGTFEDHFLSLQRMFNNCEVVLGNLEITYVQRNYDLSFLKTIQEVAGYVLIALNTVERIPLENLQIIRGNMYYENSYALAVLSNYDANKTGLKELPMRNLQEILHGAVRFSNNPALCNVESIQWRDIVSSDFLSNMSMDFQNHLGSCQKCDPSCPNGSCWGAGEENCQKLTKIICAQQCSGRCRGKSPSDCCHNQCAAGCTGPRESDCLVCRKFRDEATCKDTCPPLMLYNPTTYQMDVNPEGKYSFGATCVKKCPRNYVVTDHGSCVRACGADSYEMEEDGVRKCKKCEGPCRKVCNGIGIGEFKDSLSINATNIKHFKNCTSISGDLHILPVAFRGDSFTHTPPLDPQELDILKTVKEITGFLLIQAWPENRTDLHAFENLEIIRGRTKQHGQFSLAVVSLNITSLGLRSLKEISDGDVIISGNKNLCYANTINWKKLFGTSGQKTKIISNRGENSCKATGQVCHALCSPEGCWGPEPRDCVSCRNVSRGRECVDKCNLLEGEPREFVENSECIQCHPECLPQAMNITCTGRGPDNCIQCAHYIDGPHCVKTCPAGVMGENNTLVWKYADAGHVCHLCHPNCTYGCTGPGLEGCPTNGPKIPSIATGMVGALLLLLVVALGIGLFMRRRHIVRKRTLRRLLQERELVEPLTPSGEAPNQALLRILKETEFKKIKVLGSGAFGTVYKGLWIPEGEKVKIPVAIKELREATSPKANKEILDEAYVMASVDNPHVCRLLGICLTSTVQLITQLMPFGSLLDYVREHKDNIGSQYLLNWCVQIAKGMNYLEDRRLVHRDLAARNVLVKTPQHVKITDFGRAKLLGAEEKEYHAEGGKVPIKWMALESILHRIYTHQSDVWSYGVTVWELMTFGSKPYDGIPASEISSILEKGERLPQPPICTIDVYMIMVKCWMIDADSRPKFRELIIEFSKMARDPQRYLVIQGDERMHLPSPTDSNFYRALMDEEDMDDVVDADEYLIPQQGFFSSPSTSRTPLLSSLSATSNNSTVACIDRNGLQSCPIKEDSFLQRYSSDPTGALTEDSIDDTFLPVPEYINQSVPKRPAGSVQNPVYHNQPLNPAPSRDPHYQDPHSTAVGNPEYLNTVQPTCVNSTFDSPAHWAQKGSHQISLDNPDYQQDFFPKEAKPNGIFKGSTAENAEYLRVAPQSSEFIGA
T8 sequence (P00533 with tags, fused parts or gaps DEL746-750/T790M/C797S limits assumed): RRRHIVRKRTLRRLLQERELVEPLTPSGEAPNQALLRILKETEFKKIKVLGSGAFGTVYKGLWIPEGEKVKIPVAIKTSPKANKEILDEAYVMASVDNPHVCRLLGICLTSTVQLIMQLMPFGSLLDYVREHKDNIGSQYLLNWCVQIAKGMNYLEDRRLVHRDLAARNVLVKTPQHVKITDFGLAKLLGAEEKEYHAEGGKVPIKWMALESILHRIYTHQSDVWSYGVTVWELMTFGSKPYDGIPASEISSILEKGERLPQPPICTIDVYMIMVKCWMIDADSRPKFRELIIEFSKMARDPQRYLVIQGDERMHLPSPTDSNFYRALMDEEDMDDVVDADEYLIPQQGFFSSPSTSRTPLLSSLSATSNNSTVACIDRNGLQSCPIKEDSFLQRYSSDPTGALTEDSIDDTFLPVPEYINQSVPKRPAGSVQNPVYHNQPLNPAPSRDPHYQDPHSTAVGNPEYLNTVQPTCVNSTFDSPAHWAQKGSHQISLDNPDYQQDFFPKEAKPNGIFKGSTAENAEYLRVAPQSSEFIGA

Take `CN1CCC12CCN(c1ccc3nc4n(c3c1)C13CCC(CC1)CN(CCOc1c(cnn1C)-c1cc(cn(C)c1=O)C(=O)N4)C3)CC2` [Example A122]: the 50% inhibitory concentration (IC50) (in general, the point on the concentration scale where inhibition reaches its midpoint) at EGFR (d746-750 C797S) (setting [3]) turned out to be 3.5 nM; on EGFR (C797S L858R) (setting [4]), 25 nM; at EGFR L858R/T790M (setting [5]) it was 39 nM; on EGFR[T790M/C797S/L858R] (setting [6]) it was 8.1 nM; at EGFR Exon19Del (setting [7]), 6.8 nM; at EGFR Exon19Del/T790M (setting [8]), 7.6 nM. Besides, the figures for the IC50 (at EGFR wild type (setting [15]); in assay [2] (setting [16]); on EGFR L858R (setting [17])) were 1420 nM, 5.2 nM and 48 nM, respectively. Moreover, the GI50 in the assay on PC-9 is 22 nM; in the assay with A-431 it was 2100 nM; in assay [1] (setting [9]), 3.2 nM; in [1] (setting [10]), 22 nM; in [1] (setting [11]), 19 nM; in [1] (setting [12]), 13 nM. Further, the GI50 was found to be 82 nM in assay [1] (setting [13]) and 4.1 nM in [1] (setting [14]).

As to `Cc1cc2cc(n1)-c1cnn(C)c1OCCN1CC3CCC(C3)(C1)n1c(nc3ccc(N4CCN(C)CC4)cc31)NC2=O` (centres unmarked) [Example B9B, 15,21-Dimethyl-5-(4-methylpiperazin-1-yl)-23-oxa-2,9,11,16,20,21,26-heptaazaheptacyclo[24.4.1.1^{1,28}.1^{13,17}.0^{2,10}.0^{3,8}.0^{18,22}]tritriaconta-3,5,7,9,13,15,17(33),18(22),19-nonaen-12-one], the IC50 at EGFR (d746-750 C797S) (EGFR (d746-750 C797S), 1 h at room temperature, read-out: IC50 @Del19-C797S) was 0.73 nM; on EGFR (C797S L858R) (EGFR (C797S L858R), 1 h at room temperature, read-out: IC50 @L858-C797S) it was 3.3 nM; on EGFR L858R/T790M (EGFR L858R/T790M, 1 h at room temperature, read-out: IC50 @L858R-T790M) it was 1.1 nM; at EGFR[T790M/C797S/L858R] (EGFR[T790M/C797S/L858R], 1 h at room temperature, read-out: IC50 @T790M- C797S - L858R), 1 nM; on EGFR Exon19Del (EGFR Exon19Del, 1 mM ATP, 1 h at room temperature) it was 1.4 nM; at EGFR Exon19Del/T790M (EGFR Exon19Del/T790M, 1 h at room temperature, read-out: IC50 @Del19-T790M), 1.3 nM. Further, the IC50 on EGFR wild type (EGFR wild type, 1 h at room temperature, read-out: IC50 @WT) is 114 nM; in assay [2] (EGFR[T790M/C797S/d746-750], 1 mM ATP, 1 h at room temperature, read-out: IC50 @T790M - C797S - Del19), 1.4 nM; at EGFR L858R (1 h at room temperature, read-out: IC50 @L858R), 7.4 nM. The GI50 is 6.1 nM in the assay with PC-9; 366 nM with A-431; 0.58 nM in assay [1] (setting [9]); 0.59 nM in [1] (setting [10]); 3.2 nM in [1] (setting [11]); 0.6 nM in [1] (setting [12]). Moreover, the GI50 was 0.83 nM in [1] (setting [13]), 2.7 nM in assay [1] (setting [14]) and 0.6 nM in assay [1] (setting [18]).

Take `Cc1cc2cc(n1)-c1cnn(C3CC3)c1OCCN(CC(F)(F)F)CCn1c(nc3ccccc31)NC2=O` [Example B6, 5-cyclopropyl-26-methyl-10-(2,2,2-trifluoroethyl)-7-oxa-4,5,10,13,20,22,27-heptaazapentacyclo[22.3.1.0^{2,6}.0^{13,21}.0^{14,19}]octacosa-1(27),2(6),3,14,16,18,20,24(28),25-nonaen-23-one]: the IC50 on EGFR (d746-750 C797S) (setting [3]) turned out to be 112 nM; on EGFR (C797S L858R) (setting [4]) it was 390 nM; on EGFR L858R/T790M (setting [5]) it was 9 nM; at EGFR[T790M/C797S/L858R] (setting [6]), 3.1 nM; at EGFR Exon19Del (setting [7]), 197 nM; at EGFR Exon19Del/T790M (setting [8]) it was 5.2 nM. Besides, the IC50 at EGFR wild type (setting [15]) was greater than 5000 nM; in assay [2] (setting [16]), 3.6 nM; at EGFR L858R (setting [17]), 1090 nM. Also, the GI50 came to 145 nM with PC-9; 2830 nM in the assay with A-431; 62 nM in [1] (setting [9]); 42 nM in assay [1] (setting [10]); 69 nM in assay [1] (setting [11]); 7.7 nM in assay [1] (setting [12]). The GI50 came out at 16 nM in assay [1] (setting [13]), 35 nM in assay [1] (setting [14]) and 48 nM in [1] (setting [18]).
